US9187458B2, “Cyanoquinoline derivatives” (Tianjin Hemay Bio-Tech Co., LTD., priority 2010, dated 2015)
Where a name gives a salt, the structure may show the parent alone.

What was measured:
NCI-H1650 cells = experiment: NCI-H1650 Cell Growth Inhibition Test (SRB Assay); format: cell-based; settings: Homo sapiens, 72 h incubation
Experimental: NCI-H1650 Cell Growth Inhibition Test (SRB Assay)
1. Cell strains: NCI-H1650 (human non-small cell lung cancer cell strains);
2. SRB, 0.4% (w/v) working solution was formulated with 1% glacial acetic acid and reserved at 4° C.; antitumor compounds; DMSO
(§1) 1. A plate (10 cm) of cells in logarithmic growth phase normally cultured was collected;
2. The culture solution was sucked out. The plate was washed with 5 mL of PBS 1-2 times;
3. 1.5 mL of 0.25% pancreatin was added to the plate to infiltrate the cells;
4. The pancreatin was sucked out. The culture plate was placed in an incubator. Digestion was carried out for about 3 min at 37° C.;
5. 4 mL of complete culture solution was added to the culture plate to stop the digestion. The cells were carefully scoured with micropipette (1 ml) to give a uniform single cell suspension. The suspensin was implanted into a 96-well cell culture plate by 6000 cells/100 μl per well. The culture plate was incubated overnight under 5% CO2 at 37° C. In day 2, 100 μl of culture solution comprising a compound was added in each well, and further incubated for 72 h under 5% CO2 at 37° C.;
(§2) 6. The culture solution was sucked out. 100 uL of TCA fixed cells which were diluted to 10% were added to each well. The plate was kept in a refrigerator for 1 h at 4° C.
(§3) 7. TCA stationary liquid was sucked out. Each well was washed with 150 μL of ddH2O five times;
(§4) 8. After the stationary liquid was cleansed, the plate was dried in the air at the room temperature;
(§5) 9. 60 μL of SRB staining solution was added in each well. The well was stained for 15 min at the room temperature;
(§6) 10. The SRB staining solution was sucked out. Each well was washed with 150 μL of 1% glacial acetic acid five times;
(§7) 11. After the SRB staining solution was cleansed, the plate was dried in the air at the room temperature;
12. 100 μL of 10 mM Tris was added in each well, the plate was vibrated to dissolve out SRB;
(§8) 13. OD values were determined at 570 nM.
(§9) 1. Calculation of Relative Inhibition Ratio The inhibition ratio of a compound on cell growth=(PC−n)/(PC−NC)×100%
(§10) IC50: Concentration of a compound where inhibition ratio was 50%. IC50 values were fitted with Origin7.5.

A431 cells = experiment: A431 Cell Growth Inhibition Test (MTT Assay); format: cell-based, human; settings: Homo sapiens, A-431, 68 h, compound 1 μM, 68 h incubation, read-out: Growth Inhibition Ratio (%)
Experimental: A431 Cell Growth Inhibition Test (MTT Assay)
1. Cell strains: A431 (human epithelial […] cell strains);
Culture medium: 45% DMEM, 45% F12+10% FBS;
as §1
(§11) 2. The culture solution was sucked out. The plate was washed with 5 ml of PBS 1-2 times;
3. PBS was sucked out, and 2 ml of 0.25% pancreatin was added to infiltrate the cells for 1 min;
4. The pancreatin was sucked out, and the culture plate was placed in an incubator. Digestion was carried out for about 15 min at 37° C.;
(§12) 5. 4 ml of complete culture solution was added in the culture plate to stop the digestion. The cells were carefully scoured with micropipette (1 ml) to give a uniform cell suspension. The suspension was implanted into a 96-well cell culture plate by 2500 cells/100 μl per well. The culture plate was incubated overnight under 5% CO2 at 37° C. In day 2, 100 μl of culture solution comprising the compound was added in each well, and further incubated for 68 h under 5% CO2 at 37° C.
(§13) 6. The culture solution was sucked out;
7. 100 μl of serum-free culture solution containing 0.5 mg/ml MTT was added in each well, and incubated for 4 h;
(§14) 8. The culture solution was carefully sucked out;
9. 100 μl of DMSO was added into each well and vibrated to dissolve;
(§15) 10. OD values were determined at 490 nM.
as §9
IC50: concentration of a compound where inhibition ratio was 50%. IC50 values were fitted with Origin7.5.

EGFR-TK = target: T1, EGFR-TK (Homo sapiens, UniProt P00533); experiment: Inhibition Test on EGFR-TK (ELISA, PGT substrate); format: biochemical; settings: 20 min at room temperature, read-out: Inhibition Activity (EC50) on EGFR-TK phosphorylation
T1 construct: EGFR-TK: intracellular epidermal growth factor receptor phosphorylase
Experimental: Inhibition Test on EGFR-TK
1. 2 mg/ml of PGT was diluted with PBS to 0.2 mg/ml. The resulting solution was added into elisa plate by 50 μl per well. The plate was placed in a refrigerator at 4° C. and coated overnight.
2. The coating solution was discarded to stop coating. The plate was washed three times with PBS, and then beaten to dryness.
3. The elisa plate was placed in a refrigerator at 4° C., drained out and stood for 2h.
4. The mother liquid of aqueous solution of each compound was diluted with double distilled water to four folds, i.e. a desirable concentration. Then, the compound was diluted and added in the corresponding elisa well by 25 μl/well.
5. […] of ATP solution was diluted with double distilled water to 50 folds and then sufficiently mixed. The resulting solution was separately added in each elisa well by 25 μl per well (except for the negative control).
6. EGFR kinase was diluted with 2×TKB to 800 folds. The solution was added in elisa well with 50 μl per well. Then, the enzyme reaction began. The elisa plate was immediately placed on a micro-oscillator and shaked to react for 20 min at the room temperature.
7. 2% of SDS was added in the elisa well to stop the reaction by adding 100 μl of SDS into each well. The solution was sufficiently mixed on the micro-oscillator to sufficiently mix for about 5 min.
8. The reaction solution was sucked out. The plate was washed four times with PBST. After the plate was beaten to dryness, 0.25 μg/ml of mice anti-phosphorylation tyrosine-HRP antibody which was diluted with blocking solution (3% solution of BSA in PBST) was added in the plate by 100 μl per well. The mixture was reacted for 30 min at the room temperature.
9. The antibody reaction solution was sucked out. The plate was washed four times with PBST. After the plate was beated to dryness, TMB peroxidase substrate was added to the plate by 100 μl/well. The mixture reacted in the dark for 15 min at the room temperature.
10. 100 μl of 2N H2SO4 was added in the plate to stop the chromogenic reaction. After the bubbles were cleansed, OD values were determined in ELIASA at 450 nm.
11. Formula for calculating inhibition percentage: […]

NCI-H460 cells = experiment: NCI-H460 Cell Growth Inhibition Test (MTT Assay); format: cell-based; settings: Homo sapiens, 72 h incubation
Experimental: NCI-H460 Cell Growth Inhibition Test (MTT Assay)
1. Cell strains: NCI-H460 (human large cell lung cancer cell strains);
as §1, §11
3. PBS was sucked out. 2 ml of 0.25% pancreatin was added to infiltrate the cells for 1 min;
4. The pancreatin was sucked out. The culture plate was placed in an incubator. Digestion was carried out for about 2 min at 37° C.;
as §12, with “was added to the culture” for “was added in the culture”, “solution comprising a compound was” for “solution comprising the compound was”, “incubated for 72 h under” for “incubated for 68 h under”
as §13
(§16) 7. 100 μl of serum-free culture solution containing 0.5 mg/ml MTT was added in each well, and incubated for 3 h;
as §14
9. 100 μl of DMSO was added in each well and vibrated to dissolve;
as §15, §9, §10

BT-474 cells = experiment: BT-474 Cell Growth Inhibition Test (SRB Assay); format: cell-based, human; settings: Homo sapiens, BT-474, 70 h, compound 1 μM, 70 h incubation, read-out: Growth Inhibition Ratio (%)
Experimental: BT-474 Cell Growth Inhibition Test (SRB Assay)
1. Cell strains: BT-474 (human breast tumor cell strains);
2. SRB: available from Sigmaaldrich, goods number: S9012, lot number: 047K3751. SRB was reserved at the room temperature. 0.4% (w/v) of working solution was formulated with 1% of glacial acetic acid. The solution was reserved at the temperature of 4° C.; anti-tumor compounds; DMSO.
Culture medium (90% EMEM+10% FBS+0.1 mM NEAA, reserved at 4° C.);
1. A plate (10 cm) of cells in logarithmic growth phase normally cultured was collected. The culture solution was sucked out. The plate was washed with 5 mL of PBS 1-2 times;
2. PBS was sucked out, and […] of 0.25% pancreatin was added to infiltrate the cells for 30 s;
3. The pancreatin was sucked out. The culture plate was pleaced in an incubator. Digestion was carried out for about 5 min at 37° C.;
4. 3 mL of complete culture solution was added to the culture plate to stop the digestion. The cells were carefully scoured with micropipette (1 ml) to give a uniform single cell suspension;
5. Cell suspension was counted. The suspension was diluted to 1×10^5/ml. The resulting suspension was developed uniformly on a plate. The plate was incubated under 5% CO2 at 37° C. overnight. In day 2, 80 μL of complete culture medium was added in each well and then 20 μL of culture solution comprising a compound was added. The mixture was incubated for 70 h under 5% CO2 at 37° C.
as §2, §3, §4, §5, §6, §7
12. 100 μL of 10 mM Tris was added in each well. The plate was vibrated to dissolve out SRB;
as §8, §9, §10

AsPC-1 cells = experiment: AsPC-1 Cell Growth Inhibition Test (MTT Assay); format: cell-based; settings: Homo sapiens, ASPC1, 72 h incubation
Experimental: AsPC-1 Cell Growth Inhibition Test (MTT Assay)
Cell strains: AsPC-1 (human pancreatic cancer cell strains);
as §1, §11
(§17) 3. PBS was sucked out. 1.5 ml of 0.25% pancreatin was added to infiltrate the cells for 1 min;
4. The pancreatin was sucked out. The culture plate was placed in an incubator. Digestion was carried out for about 7.5 min at 37° C.;
(§18) 5. 4.5 ml of complete culture solution was added to the culture plate to stop the digestion. The cells were carefully scoured with micropipette (1 ml) to give a uniform cell suspension. The suspension was implanted into a 96-well cell culture plate by 8000 cells/100 μl per well. The culture plate was incubated overnight under 5% CO2 at 37° C. In day 2, 100 μl of culture solution comprising a compound was added in each well, and further incubated for 72 h under 5% CO2 at 37° C.
as §13, §16, §14
(§19) 9. 100 μl of DMSO was added in each welland vibrated to dissolve;
as §15, §9, §10

CCRF-CEM/T cells = experiment: CCRF-CEM/T Cell Growth Inhibition Test (MTT Assay); format: cell-based; settings: Homo sapiens, CCRF-CEM/T cells (resistant to paclitaxel), 72 h incubation
Experimental: CCRF-CEM/T Cell Growth Inhibition Test (MTT Assay)
Cell strains: CCRF-CEM/T (human acute lymphocytic cell leukemia cells);
triple lysate solution: 10% SDS, 5% isobutanol, 0.012M HCl.
1. Cells were cultured to exponential phase. The cells were suspension cells;
2. The cells were collected by centrifuge. The resulting cells were resuspended in a complete culture medium to a desired concentration. The cells suspension was implanted into a 96-well cell culture plate by 20000 cells per well. A compound was added in the wellsuch that the final volume of the system was 120 μl. The system was further incubated for 72 h under 5% CO2 at 37° C.
7. 30 μl of serum-free culture solution containing 2.5 mg/ml MTT was added in each well, and incubated for 3 h;
8. 150 μl of triple lysate solution was added in each well and placed to dissolve at the room temperature;
9. OD values were determined at 570 nM.
as §9, §10

Fadu cells = experiment: Fadu Cell Growth Inhibition Test (MTT Assay); format: cell-based; settings: Homo sapiens, 72 h incubation
Experimental: Fadu Cell Growth Inhibition Test (MTT Assay)
Cell strains: Fudu (human head and neck cancer cell strains);
Culture medium: 90% EMEM+10% FBS;
as §1, §11, §17
4. The pancreatin was sucked out. The culture plate was placed in an incubator. Digestion was carried out for about 5 min at 37° C.;
as §18, with “6000” for “8000”
as §13, §16, §14, §19, §15, §9, §10

T1 sequence (P00533 669-1210 limits assumed): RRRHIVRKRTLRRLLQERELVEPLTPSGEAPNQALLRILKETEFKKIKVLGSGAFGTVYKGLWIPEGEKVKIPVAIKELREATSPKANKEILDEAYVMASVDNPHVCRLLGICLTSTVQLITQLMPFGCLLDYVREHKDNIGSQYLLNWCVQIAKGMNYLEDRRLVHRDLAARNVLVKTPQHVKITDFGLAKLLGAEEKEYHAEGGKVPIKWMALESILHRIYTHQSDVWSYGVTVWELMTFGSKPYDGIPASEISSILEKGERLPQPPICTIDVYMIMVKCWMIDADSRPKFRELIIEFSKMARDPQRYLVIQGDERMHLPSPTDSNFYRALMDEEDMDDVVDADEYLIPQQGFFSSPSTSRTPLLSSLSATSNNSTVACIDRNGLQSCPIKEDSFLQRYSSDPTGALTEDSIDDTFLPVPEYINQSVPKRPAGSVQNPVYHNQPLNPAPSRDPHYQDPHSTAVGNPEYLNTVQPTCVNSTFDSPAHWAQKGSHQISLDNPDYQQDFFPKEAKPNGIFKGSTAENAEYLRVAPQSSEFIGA

SMILES	IC50 (NCI-H1650 cells)	inhibition at 1 µM (A431 cells)	EC50 (EGFR-TK)	IC50 (NCI-H460 cells)	inhibition at 1 µM (BT-474 cells)	IC50 (AsPC-1 cells)	IC50 (CCRF-CEM/T cells)	IC50 (Fadu cells)
CN(C)C/C=C/C(=O)Nc1cc2c(Nc3ccc(OCc4ccccn4)c(Cl)c3)c(C#N)cnc2cc1OC1CCOC1 (stereo not shown) [Example 3, (E)-N-(4-(3-CHLORO-4-(PYRIDIN-2-YL-METHOXY)PHENYLAMINO)-3-CYANO-7-(TETRAHYDROFURAN-3-YL-OXY)QUINOLIN-6-YL)-4-(DIMETHYLAMINO)-BUT-2-ENAMIDE HYDROCHLORIDE]	819 nM	85%						
N#Cc1cnc2cc(OC3CCOC3)c(NC(=O)C=C3CCNCC3)cc2c1Nc1ccc(OCc2cccc(F)c2)c(Cl)c1 (stereo not shown) [Example 46, N-(4-(4-(3-FLUOROBENZYLOXY)-3-CHLOROPHENYLAMINO)-3-CYANO-7-(TETRAHYDROFURAN-3-YL-OXY)QUINOLIN-6-YL)-2-(PIPERIDIN-4-YLIDENE)ACETAMIDE]			25 nM	4000 nM				
CN(C)C/C=C/C(=O)Nc1cc2c(Nc3ccc(OCc4cccc(F)c4)c(Cl)c3)c(C#N)cnc2cc1O[C@H]1CCOC1 [Example 158, (S,E)-N-(4-(4-(3-FLUOROBENZYLOXY)-3-CHLOROPHENYLAMINO)-3-CYANO-7-(TETRAHYDROFURAN-3-YL-OXY)QUINOLIN-6-YL)-4-(DIMETHYLAMINO)-BUT-2-ENAMIDE]	760 nM	77%			82%	440 nM	1100 nM	119 nM
